Experimental data published in ChEMBL document CHEMBL5726093, “Piperidine derivatives” (2019).

Target: Cathepsin S (Homo sapiens, UniProt P25774)
Experiment: Cathepsin Enzyme Inhibition Assay: Enzyme activity is measured by observing the increase in fluorescence intensity caused by cleavage of a peptide substrate containing a fluorophore whose emission is quenched in the intact peptide.Assay buffer: 100 mM potassium phosphate pH 6.5, EDTA-Na 5 mM, Triton X-100 0.001%, DTT 5 mM.Enzymes (all at 1 nM): human and mouse Cathepsin S, Cat K, Cat B, Cat L.Substrate (20 Z-Val-Val-Arg-AMC, except for Cat K which uses Z-Leu-Arg-AMC (both from Bachem).Z=Benzyloxycarbonyl.AMC=7-Amino-4-Methyl-Coumarin.DTT=dithiothreitol.Final volume: 100 μL.Excitation 360 nm, Emission 465 nm.Enzyme is added to the substance dilutions in 96-well microtitre plates and the reaction is started with substrate. Fluorescence emission is measured over 20 minutes, during which time a linear increase is observed in the absence of inhibitor.

Sequence of Cathepsin S (P25774 whole entry): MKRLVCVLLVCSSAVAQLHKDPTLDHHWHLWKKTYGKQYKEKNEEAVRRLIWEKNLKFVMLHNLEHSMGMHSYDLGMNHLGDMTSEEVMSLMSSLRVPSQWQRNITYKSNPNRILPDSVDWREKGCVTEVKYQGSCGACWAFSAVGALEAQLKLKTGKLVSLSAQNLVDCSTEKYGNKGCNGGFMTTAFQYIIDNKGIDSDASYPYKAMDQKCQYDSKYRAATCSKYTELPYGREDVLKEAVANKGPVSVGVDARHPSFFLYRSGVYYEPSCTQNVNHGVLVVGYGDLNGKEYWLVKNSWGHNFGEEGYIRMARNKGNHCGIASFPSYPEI

Cn1c(=O)n(C2CCN(Cc3nc(-c4ccc(C(F)(F)F)cc4)[nH]c3-c3ccccc3)CC2)c2ccccc21
IC50: 985 nM
